The subject of test [1] is Mus musculus. The test is described as follows: Compound was evaluated for (T-C) survival time of the treated mice (Mus musculus) against Plasmodium berghei at 160 mg/kg. The class given is functional.
For test [2], the system named is Mus musculus. The test is described as follows: Compound was evaluated for (T-C) survival time of the treated mice (Mus musculus) against Plasmodium berghei at 40 mg/Kg. The class given is functional.
Test [3] has as its system Mus musculus. The test is described as follows: Compound was evaluated for (T-C) survival time of the treated mice (Mus musculus) against Plasmodium berghei at 640 mg/kg. The class given is functional.
Test [4] has as its system Plasmodium falciparum. Nature of the test: In vitro antimalarial activity against Plasmodium falciparum D6. The class given is functional, organism-based.
The test system of test [5] is Plasmodium falciparum. The test is described as follows: In vitro antimalarial activity against Plasmodium falciparum W-2. It counts as functional, organism-based.

In the case of `CC(C)(C)OOCN1CCN(c2ccccc2)CC1`, the T-C in the test with Mus musculus [1] turned out to be 0.7 days; with Mus musculus [2] it was 0.9 days; in the test with Mus musculus [3] it was 0.7 days. The half-maximal inhibitory concentration (IC50) in the test on Plasmodium falciparum [4] stood at 25.7 µM; with Plasmodium falciparum [5], 39.8 µM.
For the molecule `CCN(COOC(C)(C)C)c1ccccc1`, the T-C in the test on Mus musculus [1] worked out at 0.3 days; with Mus musculus [2], 0.5 days; with Mus musculus [3], 1.3 days. Moreover, the half-maximal inhibitory concentration (IC50) with Plasmodium falciparum [4] came to 54 µM; with Plasmodium falciparum [5], 39.4 µM.
Turning to `CC1CCN(COOC(C)(C)C)CC1`, the T-C is 0.1 days with Mus musculus [1], 0.3 days with Mus musculus [2] and 0.7 days in the test with Mus musculus [3]. The half-inhibitory concentration (IC50) amounted to 19.7 µM with Plasmodium falciparum [4] and 25.2 µM in the test on Plasmodium falciparum [5].
Consider `CN(COOC(C)(C)C)C1CCCCC1`, for which the T-C came to 1.3 days in the test on Mus musculus [1], 0.5 days in the test with Mus musculus [2] and 0.7 days in the test on Mus musculus [3]. The IC50 amounted to 25.1 µM with Plasmodium falciparum [4] and 26.6 µM in the test on Plasmodium falciparum [5].
`CC(C)(C)OOCN1CCC(c2ccccc2)CC1`: the figures for the T-C in the test with Mus musculus [1], with Mus musculus [2] and in the test on Mus musculus [3] were 0.5 days, 0.3 days and 0.8 days, respectively. Further, the half-inhibitory concentration (IC50) in the test on Plasmodium falciparum [4] stood at 27.3 µM; in the test on Plasmodium falciparum [5], 26.9 µM.
In the same order, the values of `CC(C)(C)OO` [TERT-BUTYL HYDROPEROXIDE] are 0.3 days, 0.1 days, 0.7 days, 203 µM and 240 µM.

In general, IC50 refers to the concentration at which inhibition is half-maximal. High values mean a need for much substance, low ones inhibition by little substance.

The record behind these values is ChEMBL document CHEMBL1124338, “Amine peroxides as potential antimalarials” (J Med Chem, 1989).
